Laboratory results taken from US11401247B2, “Thiazole-5-carboxylic acid derivative and preparation method and use thereof” (XIANGBEI WELMAN PHARMACEUTICAL CO., LTD, priority 2018, dated 2022).

Experiments:
hyperuricemia rats [1] = assay: pharmacodynamic screening in rat hyperuricemia model (exogenous uric acid administered, uric acid decomposition inhibited); assay type: in vivo, SD rats
in vivo = conditions: mouse, po
hyperuricemia rats [2] = assay: dose-effect relationship study in rat hyperuricemia model; assay type: in vivo, SD rats; conditions: 3 h after first administration, model group 226.2 ± 35.2, blank 37.4 ± 5.1
Experimental: In order to further study the pharmacological activity of the compounds of the present disclosure, as well as the relationship between the activity and the dose, this example selected several compounds of the present disclosure to conduct a dose-effect relationship study in a rat model, in which exogenous uric acid was administered and uric acid decomposition was inhibited simultaneously. A positive drug was used as a control.
1. Experimental animals: Male SPF grade SD rats weighing 110-150 grams. […] The animals were free to drink and eat. All cages were sterilized at 121° C., feed was sterilized by irradiation, and water was sterilized purified water.
2. Experimental drugs: F-1C, F-2C, F-3A, 1.0 g for each compound; febuxostat (positive drug) 1.0 g; febuxostat ethyl ester (ethyl 2-[3-cyano-4-isobutoxyphenyl]-4-methylthiazole-5-carboxylate) 1.0 g;
3.1 Formulation of F-1C, F-2C, F-3A: Tor each of the compounds, take 100 mg, add 20 ml of 0.5% sodium carboxymethyl cellulose and grind, and then dilute to 100 ml.
3.2 Take 100 mg of febuxostat, add 20 ml of 0.5% sodium carboxymethyl cellulose and grind, and then dilute to 100 ml.
Except the blank group, the rest rats were modeled for 15 days and then their serum uric acid levels were detected. The rats were equally divided into several groups according to the detected uric acid levels thereof.
F-1C, F-2C and F-3A groups: each compound was taken orally at 3 doses, i.e., 2.5, 5 and 10 mg/kg; QD; and 10 animals for each dose group.
Febuxostat group: oral administration of 10 mg/kg, QD, and 10 animals.
Febuxostat ethyl ester group: oral administration of 10 mg/kg, QD, and 10 animals.
The blank group was not administrated with any drug. Each of the rest groups was orally administrated with oteracil potassium 1 g/kg and uric acid 0.3 g/kg and intraperitoneally injected with 0.1 g/kg uric acid (dissolved in 0.5% sodium carboxymethyl cellulose), once a day on schedule, for 15 days. 0.5 ml of blood samples was drawn from orbit before the experiment and […] after the modelling, respectively, to separated serum for determining serum uric acid levels.
After successful modeling, the rats were equally divided into several groups according to the serum uric acid values thereof, and then were intragastrically administrated with the test drugs. Three hours after the first administration, 0.5 ml of orbital venous blood was drawn from the orbit of the rats, centrifuged at 3000 RPM for 15 min, to obtain for determining the serum uric acid level of each rat.
Data were expressed by mean±standard deviation (′x±SD), and analyzed by Excel 7.0 and SPPS 13.0 for Windows software. Q-test was used for the comparison between groups, and the self-paired t-test was used for the comparison of a group before and after administration. It indicated significant difference when P<0.05.

Cc1nc(-c2ccc(OCC(C)C)c(C#N)c2)sc1C(=O)OC(C)Cl (centres unmarked) [Compound F-1C]
Autopsy results of survival animals (ICR mice; formal test, 3000 mg/kg ig): No obvious abnormalities were observed in the organs | animal deaths within 24 hours from the administration (ICR mice; formal test, all dose groups, febuxostat high-dose group): no animal deaths were observed | Abnormal reactions within 12 hours from ig administration (ICR mice; formal test, F compounds 3000 mg/kg, febuxostat high-dose group): no abnormalities were observed | Number of dead animals (ICR mice; ig 3000 mg/kg, 10 mice): 0 | death, preliminary experiments (ICR mice; mice, intragastric 1600 mg/kg): no animal died | toxic reactions, preliminary experiments (ICR mice; mice, intragastric 1600 mg/kg): no obvious toxicity symptom was observed | Serum uric acid level, Value after 3 h of drug administration (hyperuricemia rats [1]; 10 mg/kg oral, 3 h after first administration, model group 174.4 ± 39.9, blank 53.9 ± 12.8): 64.2 ± 28.1^a3b3 μmol/L | uric acid-lowering effect (in words) (hyperuricemia rats [1]; 3 h after drug administration, F compounds 10 mg/kg, febuxostat and ethyl ester 14 mg/kg oral): very obvious uric acid-lowering effects | p, uric acid level 3 h after drug administration compared with the blank group (hyperuricemia rats [1]; F compounds 10 mg/kg, febuxostat 14 mg/kg oral): no significant difference | LD50 at 14 days (in vivo): 3000 mg/kg | LD50 at 14 days (in vivo; 3000 mg/kg): ≥ 3000 mg/kg | Serum uric acid content, Value after 3 h of drug administration (hyperuricemia rats [2]; 2.5 mg/kg oral): 189.8 ± 25.3^a3 μmol/L | Serum uric acid content, Value after 3 h of drug administration (hyperuricemia rats [2]; 5 mg/kg oral): 146.9 ± 19.5^a3, b3 μmol/L | Serum uric acid content, Value after 3 h of drug administration (hyperuricemia rats [2]; 10 mg/kg oral): 100.1 ± 25.8^a3, b3, c3 μmol/L
